# Reference: PubChem BioAssay AID256 (DTP/NCI, 2004)
# Where “and” joins values, the source holds several entries; their conditions need not be identical. Equal values may be shown once. Toxic doses and inconclusive results are not listed.
# Tested on: CD2F1 mice, L1210 leukemia ip, survival T/C
# Assay: NCI In Vivo Anticancer Drug Screen. Data for tumor model L1210 Leukemia (intraperitoneal) in CD2F1 (CDF1) mice
# Conditions: higher = longer survival
# How it was run: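 Compound-dosed mice with transplantable tumor versus matched vehicle controls; endpoint ratio T/C reported.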
# [1] = endpoint: mean survival time, dose: 100.0 mg/kg/injection, schedule: Q04DX002 (ip), vehicle: saline with Tween-80
# [2] = endpoint: mean survival time, dose: 200.0 mg/kg/injection, schedule: Q04DX002 (ip), vehicle: saline with Tween-80
# [3] = endpoint: mean survival time, dose: 400.0 mg/kg/injection, schedule: Q04DX002 (ip), vehicle: saline with Tween-80
# [4] = endpoint: mean survival time, dose: 100.0 mg/kg/injection, schedule: Q04DX003 (ip), vehicle: saline with Tween-80
# [5] = endpoint: mean survival time, dose: 200.0 mg/kg/injection, schedule: Q04DX003 (ip), vehicle: saline with Tween-80
# [6] = endpoint: mean survival time, dose: 400.0 mg/kg/injection, schedule: Q04DX003 (ip), vehicle: saline with Tween-80
# [7] = endpoint: mean survival time, dose: 50.0 mg/kg/injection, schedule: Q01DX009 (ip), vehicle: saline with Tween-80
# [8] = endpoint: mean survival time, dose: 100.0 mg/kg/injection, schedule: Q01DX009 (ip), vehicle: saline with Tween-80
# [9] = endpoint: mean survival time, dose: 200.0 mg/kg/injection, schedule: Q01DX009 (ip), vehicle: saline with Tween-80
# [10] = endpoint: mean survival time, dose: 400.0 mg/kg/injection, schedule: Q01DX009 (ip), vehicle: saline with Tween-80
# [11] = endpoint: mean survival time, dose: 12.5 mg/kg/injection, schedule: Q01DX009 (ip), vehicle: saline with Tween-80
# [12] = endpoint: mean survival time, dose: 25.0 mg/kg/injection, schedule: Q01DX009 (ip), vehicle: saline with Tween-80
# [13] = endpoint: mean survival time, dose: 25.0 mg/kg/injection, schedule: Q04DX002 (ip), vehicle: saline with Tween-80
# [14] = endpoint: mean survival time, dose: 50.0 mg/kg/injection, schedule: Q04DX002 (ip), vehicle: saline with Tween-80
smiles,measurement,setting,value
Nc1ccn(C2OC3COC2C3O)c(=O)n1 (stereo unspecified),T/C,"endpoint: mean survival time, dose: 12.5 mg/kg/injection, schedule: Q01DX005 (ip), vehicle: water",101 % of control
same,T/C,"endpoint: mean survival time, dose: 25.0 mg/kg/injection, schedule: Q01DX005 (ip), vehicle: water",101 % of control
same,T/C,"endpoint: mean survival time, dose: 50.0 mg/kg/injection, schedule: Q01DX005 (ip), vehicle: water",102 % of control
same,T/C,"endpoint: mean survival time, dose: 100.0 mg/kg/injection, schedule: Q01DX005 (ip), vehicle: water",101 % of control
same,T/C,"endpoint: mean survival time, dose: 200.0 mg/kg/injection, schedule: Q01DX005 (ip), vehicle: water",107 % of control
CN(C)c1ncnc(-c2ccncc2)n1,T/C,[1],88 % of control
same,T/C,[2],100 % of control
COc1ccc(C(=O)C(=O)c2ccccc2Cl)cc1,T/C,[1],98 % of control
same,T/C,[2],102 % of control
same,T/C,[3],95 % of control
Cc1ccc(N=Cc2cc(I)cc(I)c2O)cc1.Cc1ccc(N=Cc2cc(I)cc(I)c2O)cc1.[Co],T/C,"endpoint: mean survival time, dose: 50.0 mg/kg/injection, schedule: Q04DX003 (ip), vehicle: saline",87 % of control
same,T/C,"endpoint: mean survival time, dose: 100.0 mg/kg/injection, schedule: Q04DX003 (ip), vehicle: saline",104 % of control
same,T/C,"endpoint: mean survival time, dose: 200.0 mg/kg/injection, schedule: Q04DX003 (ip), vehicle: saline",96 % of control
CCCCCCCCCC(=O)NCC[N+](C)(CC)CC,T/C,"endpoint: mean survival time, dose: 5.0 mg/kg/injection, schedule: Q01DX001 (ip), vehicle: saline",102 % of control
same,T/C,"endpoint: mean survival time, dose: 10.0 mg/kg/injection, schedule: Q01DX001 (ip), vehicle: saline",107 % of control
same,T/C,"endpoint: mean survival time, dose: 20.0 mg/kg/injection, schedule: Q01DX001 (ip), vehicle: saline",100 % of control
same,T/C,"endpoint: mean survival time, dose: 40.0 mg/kg/injection, schedule: Q01DX001 (ip), vehicle: saline",105 % of control
O=C(NCCCl)Nc1ncn[nH]1,T/C,[4],95 % of control
same,T/C,[5],98 % of control
same,T/C,[6],96 % of control
O=CNc1cccc2ccc3cc4ccccc4cc3c12,T/C,[7],90 % of control
same,T/C,[8],88 % of control
same,T/C,[4],94 % of control
same,T/C,[9],93 % of control
same,T/C,[5],88 % of control
O=C1N(CCO)CCN1/N=C/c1ccc([N+](=O)[O-])o1,T/C,[4],93 % of control
same,T/C,[5],102 % of control
same,T/C,[6],95 % of control
OCC1OC(n2cnc3c(=S)nc(NO)[nH]c32)C(O)C1O (stereo unspecified),T/C,"endpoint: mean survival time, dose: 6.25 mg/kg/injection, schedule: Q01DX005 (ip), vehicle: saline with Tween-80",196 % of control and 237 % of control
same,T/C,"endpoint: mean survival time, dose: 12.5 mg/kg/injection, schedule: Q01DX005 (ip), vehicle: saline with Tween-80",164 % of control and 263 % of control
same,T/C,"endpoint: mean survival time, dose: 25.0 mg/kg/injection, schedule: Q01DX005 (ip), vehicle: saline with Tween-80",102 % of control
same,T/C,"endpoint: mean survival time, dose: 50.0 mg/kg/injection, schedule: Q01DX005 (ip), vehicle: saline with Tween-80",89 % of control
Cc1ccc(C(=O)CC(O)(C(F)(F)F)C(F)(F)F)cc1,T/C,"endpoint: mean survival time, dose: 100.0 mg/kg/injection, schedule: Q01DX009 (ip), vehicle: other",106 % of control
same,T/C,"endpoint: mean survival time, dose: 400.0 mg/kg/injection, schedule: Q01DX009 (ip), vehicle: other",112 % of control
COC(O)C1OC(c2ccccc2)OC2C(CO)OC(c3ccccc3)OC12 (stereo unspecified),T/C,[8],90 % of control
same,T/C,[9],90 % of control
same,T/C,[10],90 % of control
Cn1ccc(=O)nc1,T/C,"endpoint: mean survival time, dose: 100.0 mg/kg/injection, schedule: Q04DX003 (ip), vehicle: saline sonified",102 % of control
same,T/C,"endpoint: mean survival time, dose: 200.0 mg/kg/injection, schedule: Q04DX003 (ip), vehicle: saline sonified",104 % of control
same,T/C,"endpoint: mean survival time, dose: 400.0 mg/kg/injection, schedule: Q04DX003 (ip), vehicle: saline sonified",104 % of control
CC(CCc1ccccc1)NC1=NCCO1 (stereo unspecified),T/C,[8],102 % of control
same,T/C,[4],98 % of control
same,T/C,[9],95 % of control
same,T/C,[5],103 % of control
same,T/C,[10],98 % of control
same,T/C,[6],95 % of control
CN(C)C(=S)Oc1ccc2ccc3ccccc3c2c1,T/C,[1],96 % of control
same,T/C,[2],89 % of control
same,T/C,[3],104 % of control
CC1=CCCC(C)C2CC(C(C)(C)O)CC12 (stereo unspecified),T/C,"endpoint: mean survival time, dose: 100.0 mg/kg/injection, schedule: Q01DX001 (ip), vehicle: saline",93 % of control
same,T/C,"endpoint: mean survival time, dose: 200.0 mg/kg/injection, schedule: Q01DX001 (ip), vehicle: saline",91 % of control
same,T/C,"endpoint: mean survival time, dose: 400.0 mg/kg/injection, schedule: Q01DX001 (ip), vehicle: saline",95 % of control
O=C(c1ccccc1)C(c1ccccc1)C(SCc1ccccc1)c1ccccc1 (stereo unspecified),T/C,"endpoint: mean survival time, dose: 100.0 mg/kg/injection, schedule: Q01DX001 (ip), vehicle: saline with Tween-80",88 % of control
same,T/C,[8],94 % of control
same,T/C,"endpoint: mean survival time, dose: 200.0 mg/kg/injection, schedule: Q01DX001 (ip), vehicle: saline with Tween-80",90 % of control
same,T/C,[9],100 % of control
same,T/C,"endpoint: mean survival time, dose: 400.0 mg/kg/injection, schedule: Q01DX001 (ip), vehicle: saline with Tween-80",98 % of control
same,T/C,[10],103 % of control
CCCC/C=C/COCC,T/C,[7],97 % of control
same,T/C,[8],94 % of control
same,T/C,[9],97 % of control
O=N[O-].[Co].[N-]=C=S.[NH2-].[NH2-].[NH2-].[NH2-],T/C,[11],115 % of control
same,T/C,[12],115 % of control
CC(=O)O[C@@H]1CO[C@H]2O[C@H]3[C@@H](C(C=O)=C[C@H](O)[C@@H]4C5=C(C(C)C)CC[C@]5(C)CC[C@@]34C)[C@@]2(O)C1=O,T/C,"endpoint: mean survival time, dose: 0.75 mg/kg/injection, schedule: Q01DX009 (ip), vehicle: Klucel (hydroxypropylcellulose) (HPC)",104 % of control
same,T/C,"endpoint: mean survival time, dose: 1.5 mg/kg/injection, schedule: Q01DX009 (ip), vehicle: Klucel (hydroxypropylcellulose) (HPC)",104 % of control
same,T/C,"endpoint: mean survival time, dose: 3.0 mg/kg/injection, schedule: Q01DX009 (ip), vehicle: Klucel (hydroxypropylcellulose) (HPC)",104 % of control
same,T/C,"endpoint: mean survival time, dose: 6.0 mg/kg/injection, schedule: Q01DX009 (ip), vehicle: Klucel (hydroxypropylcellulose) (HPC)",107 % of control
O=C1OCCC1=P(c1ccccc1)(c1ccccc1)c1ccccc1,T/C,[7],100 % of control
same,T/C,[8],96 % of control
same,T/C,[9],96 % of control
O=C(CCC1CC=CCC1)c1ccccc1 (stereo unspecified),T/C,[13],111 % of control
same,T/C,[14],96 % of control
same,T/C,[1],90 % of control
same,T/C,[2],93 % of control
CC(/C=N/N=C(N)N)=N\N=C(N)N,T/C,"endpoint: mean survival time, dose: 12.5 mg/kg/injection, schedule: Q04DX003 (ip), vehicle: Klucel (hydroxypropylcellulose) (HPC)",97 % of control
same,T/C,"endpoint: mean survival time, dose: 25.0 mg/kg/injection, schedule: Q04DX003 (ip), vehicle: Klucel (hydroxypropylcellulose) (HPC)",98 % of control
same,T/C,"endpoint: mean survival time, dose: 50.0 mg/kg/injection, schedule: Q04DX003 (ip), vehicle: Klucel (hydroxypropylcellulose) (HPC)",110 % of control
same,T/C,"endpoint: mean survival time, dose: 53.6 mg/kg/injection, schedule: Q03HX024 (ip), vehicle: clinical formulation",92 % of control
same,T/C,"endpoint: median survival time, dose: 120.0 mg/kg/injection, schedule: Q01DX009 (ip), vehicle: saline",87 % of control
CC1CCCC(CN=Cc2ccccc2O)[N-]1.CC1CCCC(CN=Cc2ccccc2O)[N-]1.[Ni+2] (stereo unspecified),T/C,"endpoint: mean survival time, dose: 6.25 mg/kg/injection, schedule: Q04DX002 (ip), vehicle: saline with Tween-80",98 % of control
same,T/C,"endpoint: mean survival time, dose: 12.5 mg/kg/injection, schedule: Q04DX002 (ip), vehicle: saline with Tween-80",95 % of control
same,T/C,[13],91 % of control and 95 % of control
same,T/C,[14],91 % of control
same,T/C,[1],97 % of control
Cn1c2nc(=O)n(-c3ccccc3)c(=O)c-2nc2c1CCCC2,T/C,"endpoint: mean survival time, dose: 3.12 mg/kg/injection, schedule: Q01DX009 (ip), vehicle: saline with Tween-80",100 % of control
same,T/C,"endpoint: mean survival time, dose: 6.25 mg/kg/injection, schedule: Q01DX009 (ip), vehicle: saline with Tween-80",100 % of control
same,T/C,[11],98 % of control
same,T/C,[12],101 % of control
same,T/C,[7],100 % of control
same,T/C,[8],106 % of control
Nc1ccc(N(c2ccccc2)c2ccccc2)cc1,T/C,"endpoint: mean survival time, dose: 100.0 mg/kg/injection, schedule: Q04DX002 (ip), vehicle: Klucel (hydroxypropylcellulose) (HPC)",97 % of control
same,T/C,"endpoint: mean survival time, dose: 200.0 mg/kg/injection, schedule: Q04DX002 (ip), vehicle: Klucel (hydroxypropylcellulose) (HPC)",86 % of control
same,T/C,"endpoint: mean survival time, dose: 400.0 mg/kg/injection, schedule: Q04DX002 (ip), vehicle: Klucel (hydroxypropylcellulose) (HPC)",89 % of control
NC(=S)N/N=C/c1ccccc1N,T/C,"endpoint: mean survival time, dose: 100.0 mg/kg/injection, schedule: Q04DX003 (ip), vehicle: acetone",103 % of control
same,T/C,"endpoint: mean survival time, dose: 200.0 mg/kg/injection, schedule: Q04DX003 (ip), vehicle: acetone",97 % of control
same,T/C,"endpoint: mean survival time, dose: 400.0 mg/kg/injection, schedule: Q04DX003 (ip), vehicle: acetone",104 % of control
